Target: P2X7 receptor (hP2X7) (Homo sapiens (Human), UniProt Q99572)
Test: Screen Quest Fluo-8 No Wash Calcium Assay (Bz-ATP-induced Ca2+ influx, FLIPR TETRA)
Type: cell-based
Details: HEK-293 cells stably transfected with P2X7 receptor, Fluo-8 calcium, Low Divalent Cation Assay Buffer
Protocol: Extracellular binding of Bz-ATP to P2X7 receptor opens the channel and allows Ca2+ influx into the cells. This Ca2+ entry was measured in HEK-293 cells stably transfected with P2X7 receptor using Screen Quest™ Fluo-8 No Wash Calcium Assay Kit (AAt Bioquest®, cat. 36316). Once inside the cell, the lipophilic blocking groups of Fluo-8 are cleaved by non-specific cell esterases, resulting in a negatively-charged fluorescent dye that stays inside cells. Its fluorescence increases upon binding to calcium. When HEK-293/P2X7 cells are stimulated with Bz-ATP, Ca2+ enters the cells and the fluorescence of Fluo-8 NW increases. The dye has an absorption spectrum compatible with excitation at 488 nm by argon laser sources and its emission wavelength is in the range of 515-575 nm.
HEK-293 cells stably transfected with P2X7 receptor were seeded overnight in growth medium at 10,000 to 20,000 cells/well in 384-well plate. 24 hours later, the medium was removed and the cells were pre-loaded at RT for 1 hour with 20 μL/w of Fluo-8 NW. Then 10 μL/w of test compounds and reference antagonist A438079 at 3×-concentration were injected with the […] and the kinetic response over a period of five minutes was monitored.

Sequence of P2X7 receptor (hP2X7) (Q99572 whole entry): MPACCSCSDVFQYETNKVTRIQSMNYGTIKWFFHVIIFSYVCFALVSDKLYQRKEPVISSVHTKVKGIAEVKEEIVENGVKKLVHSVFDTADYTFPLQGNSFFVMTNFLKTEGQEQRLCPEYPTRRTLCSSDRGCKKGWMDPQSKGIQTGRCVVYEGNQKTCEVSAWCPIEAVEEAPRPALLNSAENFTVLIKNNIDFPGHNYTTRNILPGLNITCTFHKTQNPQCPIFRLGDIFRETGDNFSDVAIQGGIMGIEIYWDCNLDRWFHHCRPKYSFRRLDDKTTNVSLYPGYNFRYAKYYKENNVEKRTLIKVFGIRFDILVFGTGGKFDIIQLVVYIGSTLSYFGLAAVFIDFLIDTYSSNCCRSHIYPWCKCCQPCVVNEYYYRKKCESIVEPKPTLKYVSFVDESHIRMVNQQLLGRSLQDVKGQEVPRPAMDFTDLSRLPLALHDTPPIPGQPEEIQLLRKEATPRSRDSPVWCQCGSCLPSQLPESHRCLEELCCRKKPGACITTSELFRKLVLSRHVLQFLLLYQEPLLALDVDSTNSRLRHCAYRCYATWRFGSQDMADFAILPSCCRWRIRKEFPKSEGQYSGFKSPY

Row | IC50 [nM] | Compound
1 | 253 | Cc1ncsc1C(CNC(=O)c1c(F)cccc1Cl)N1CCCC(F)(F)C1 (stereo not drawn) [Compound 64, 2-chloro-N-[2-(3,3-difluoropiperidin-1-yl)-2-(4-methyl-1,3-thiazol-5-yl)ethyl]-6-fluorobenzamide]
2 | 39 | Cc1ncsc1C(CNC(=O)c1cc(-c2ncc(F)cn2)ccc1Cl)N1CC(F)(F)C1 (stereo not drawn) [Compound 65, 2-chloro-N-[2-(3,3-difluoroazetidin-1-yl)-2-(4-methyl-1,3-thiazol-5-yl)ethyl]-5-(5-fluoropyrimidin-2-yl)benzamide]
3 | 355 | COc1ccc(-c2ncc(F)cn2)cc1C(=O)NCC(c1scnc1C)N1CCC(F)(F)CC1 (stereo not drawn) [Compound 71, N-[2-(4,4-difluoropiperidin-1-yl)-2-(4-methyl-1,3-thiazol-5-yl)ethyl]-5-(5-fluoropyrimidin-2-yl)-2-methoxybenzamide]
4 | 238 | Cc1ncsc1C(CNC(=O)c1cc(-c2ncc(F)cn2)ccc1Cl)N1CCC(Oc2ccccc2)CC1 (stereo not drawn) [Compound 73, 2-chloro-5-(5-fluoropyrimidin-2-yl)-N-[2-(4-methyl-1,3-thiazol-5-yl)-2-(4-phenoxypiperidin-1-yl)ethyl]benzamide]
5 | 133 | Cc1ncc(C(CNC(=O)c2cc(-c3cnccn3)ccc2Cl)N2CCC(F)(F)CC2)s1 (stereo not drawn) [Compound 78, 2-chloro-N-[2-(4,4-difluoropiperidin-1-yl)-2-(2-methyl-1,3-thiazol-5-yl)ethyl]-5-(pyrazin-2-yl)benzamide]
6 | 206 | Cc1cccc(-c2ccc(Cl)c(C(=O)NCC(c3cnc(C)s3)N3CCC(F)(F)CC3)c2)n1 (stereo not drawn) [Compound 79, 2-chloro-N-[2-(4,4-difluoropiperidin-1-yl)-2-(2-methyl-1,3-thiazol-5-yl)ethyl]-5-(6-methylpyridin-2-yl)benzamide]
7 | 292 | Cc1ncc(C(CNC(=O)c2cc(-c3ncc(F)cn3)ccc2F)N2CCC(F)(F)CC2)s1 (stereo not drawn) [Compound 80, N-[2-(4,4-difluoropiperidin-1-yl)-2-(2-methyl-1,3-thiazol-5-yl)ethyl]-2-fluoro-5-(5-fluoropyrimidin-2-yl)benzamide]
8 | 737 | O=C(NCC(c1cnc(C(F)(F)F)s1)N1CCC(F)(F)CC1)c1cc(-c2ncc(F)cn2)ccc1Cl (stereo not drawn) [Compound 82]
9 | 495 | O=C(NCC(c1cnc(C2CC2)s1)N1CCC(F)(F)CC1)c1cc(-c2ncc(F)cn2)ccc1F (stereo not drawn) [Compound 86, N-[2-(2-cyclopropyl-1,3-thiazol-5-yl)-2-(4,4-difluoropiperidin-1-yl)ethyl]-2-fluoro-5-(5-fluoropyrimidin-2-yl)benzamide]
10 | 412 | Cc1ncsc1C(CNC(=O)c1c(F)cccc1Cl)N1CCOC(c2ccccc2C(F)(F)F)C1 (stereo not drawn) [Compound 90, 2-chloro-6-fluoro-N-[2-(4-methyl-1,3-thiazol-5-yl)-2-{2-[2-(trifluoromethyl)phenyl]morpholin-4-yl}ethyl]benzamide]
11 | 171 | Cc1ncsc1C(CNC(=O)c1c(F)cccc1Cl)N1CCOC(c2cnn(C)c2)C1 (stereo not drawn) [Compound 92, 2-chloro-6-fluoro-N-[2-(4-methyl-1,3-thiazol-5-yl)-2-[2-(1-methyl-1H-pyrazol-4-yl)morpholin-4-yl]ethyl]benzamide]
12 | 321 | Cc1ncsc1C(CNC(=O)c1cc(-c2ncc(F)cn2)ccc1F)N1CCOC2(CCC2)C1 (stereo not drawn) [Compound 94, 2-fluoro-5-(5-fluoropyrimidin-2-yl)-N-[2-(4-methyl-1,3-thiazol-5-yl)-2-{5-oxa-8-azaspiro[3.5]nonan-8-yl}ethyl]benzamide]
13 | 989 | Cc1ncsc1C(CNC(=O)c1c(F)cccc1Cl)N1CCOC2(CCC2)C1 (stereo not drawn) [Compound 96, 2-chloro-6-fluoro-N-[2-(4-methyl-1,3-thiazol-5-yl)-2-{5-oxa-8-azaspiro[3.5]nonan-8-yl}ethyl]benzamide]
14 | 139 | Cc1ncsc1C(CNC(=O)c1cc(-c2ncc(F)cn2)ccc1Cl)N1CCOC(c2cnn(C)c2)C1 (stereo not drawn) [Compound 97]
15 | 142 | Cc1ncsc1C(CNC(=O)c1cc(-c2ncc(F)cn2)ccc1F)N1CCOC(c2cnn(C)c2)C1 (stereo not drawn) [Compound 98]
16 | 186 | Cc1ncsc1C(CNC(=O)c1cc(-c2ncc(F)cn2)ccc1Cl)N1CCC(F)(F)CC1C (stereo not drawn) [Compound 103, 2-chloro-N-[2-(4,4-difluoro-2-methylpiperidin-1-yl)-2-(4-methyl-1,3-thiazol-5-yl)ethyl]-5-(5-fluoropyrimidin-2-yl)benzamide]
17 | 1870 | Cc1ncsc1C(CNC(=O)c1c(F)cccc1Cl)N1CCC(F)(F)CC1C (stereo not drawn) [Compound 104, 2-chloro-N-[2-(4,4-difluoro-2-methylpiperidin-1-yl)-2-(4-methyl-1,3-thiazol-5-yl)ethyl]-6-fluorobenzamide]
18 | 743 | Cc1ncc(C(CNC(=O)c2cc(-c3ncc(F)cn3)ccc2Cl)N2CCC(F)(F)CC2C)s1 (stereo not drawn) [Compound 113, 2-chloro-N-[2-(4,4-difluoro-2-methylpiperidin-1-yl)-2-(2-methyl-1,3-thiazol-5-yl)ethyl]-5-(5-fluoropyrimidin-2-yl)]
19 | 367 | Cc1ncsc1C(CNC(=O)c1ccc(N2CCCS2(=O)=O)cc1Cl)N1CCC(F)(F)CC1 (stereo not drawn) [Compound 114]
20 | 429 | O=C(NCC(c1cnc(C2CCC(F)(F)CC2)s1)N1CCC(F)(F)CC1)c1c(F)cccc1Cl (stereo not drawn) [Compound 117, 2-chloro-N-{2-[2-(4,4-difluorocyclohexyl)-1,3-thiazol-5-yl]-2-(4,4-difluoropiperidin-1-yl)ethyl}-6-fluorobenzamide]
21 | 243 | CC(C)(C)c1ncc(C(CNC(=O)c2c(F)cccc2Cl)N2CCC(F)(F)CC2)s1 (stereo not drawn) [Compound 118, N-[2-(2-tert-butyl-1,3-thiazol-5-yl)-2-(4,4-difluoropiperidin-1-yl)ethyl]-2-chloro-6-fluoro-benzamide]
22 | 319 | O=C(NCC(c1scnc1C1CC1)N1CCC(F)(F)CC1)c1cc(-c2ncc(F)cn2)ccc1Cl (stereo not drawn) [Compound 119]
23 | 6910 | Cc1ncsc1C(CNC(=O)c1cc2c(cc1F)NC(=O)CC2)N1CCC(F)(F)CC1 (stereo not drawn) [Compound 120, N-[2-(4,4-difluoropiperidin-1-yl)-2-(4-methyl-1,3-thiazol-5-yl)ethyl]-7-fluoro-2-oxo-1,2,3,4-tetrahydroquinoline-6-]
24 | 531 | O=C(NCC(c1scnc1C1CC1)N1CCC(F)(F)CC1)c1cccc2ncccc12 (stereo not drawn) [Compound 121, N-[2-(4-cyclopropyl-1,3-thiazol-5-yl)-2-(4,4-difluoropiperidin-1-yl)ethyl]quinoline-5-carboxamide]
25 | 1060 | CC(C)(C)c1ncc(C(CNC(=O)c2cc(-c3ncc(F)cn3)ccc2Cl)N2CCC(F)(F)CC2)s1 (stereo not drawn) [Compound 122, N-[2-(2-tert-butyl-1,3-thiazol-5-yl)-2-(4,4-difluoropiperidin-1-yl)ethyl]-2-chloro-5-(5-fluoropyrimidin-2-yl)benzamide]
26 | 279 | O=C(NCC(c1scnc1C1CC1)N1CCC(F)(F)CC1)c1c(F)cccc1Cl (stereo not drawn) [Compound 123, 2-chloro-N-[2-(4-cyclopropyl-1,3-thiazol-5-yl)-2-(4,4-difluoropiperidin-1-yl)ethyl]-6-fluorobenzamide]
27 | 3950 | CC(C)(C)c1ncc(C(CNC(=O)c2cccc3ncccc23)N2CCC(F)(F)CC2)s1 (stereo not drawn) [Compound 124, N-[2-(2-tert-butyl-1,3-thiazol-5-yl)-2-(4,4-difluoropiperidin-1-yl)ethyl]quinoline-5-carboxamide]

From patent publication US9718812B2, “Substituted thiazole or oxazole P2X7 receptor antagonists” (Axxam S.P.A., priority 2014, dated 2017)
